A value given as a limit tells only on which side of the number the result lay.

One assay concerns the target human P2X7 (Homo sapiens (Human), UniProt Q99572). The assay can be described thus: Human P2X7 functional assay (Ca2+ influx, Fluo-4, FDSS). The following applies: antagonistic activity with respect to the human P2X7 receptor; BzATP final concentration 80 microM. The format is cell-based. Summed up: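 HEK293 cells stably expressing C-terminally FLAG-tagged human P2X7, loaded with Fluo-4. Compounds were preincubated for 10 min at room temperature, then 80 μM BzATP (final) was added and Ca2+ fluorescence read at 540 nm (480 nm excitation) by FDSS. IC50 values come from 7-point curves, duplicate wells.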

For another assay, the target named is rat P2X7 (Rattus norvegicus (Rat), UniProt Q64663). Put plainly: Rat P2X7 functional assay (Ca2+ influx, Fluo-4, FDSS). The format is cell-based. Particulars: HEK293 cells stably expressing rat P2X7; BzATP final 10 microM; 7-point dose-response; read-out: Antagonistic activities with respect to the rat P2X7 receptor (IC50). On the procedure: Rat P2X7 Functional Assay
Sequence of rat P2X7 (Q64663 whole entry): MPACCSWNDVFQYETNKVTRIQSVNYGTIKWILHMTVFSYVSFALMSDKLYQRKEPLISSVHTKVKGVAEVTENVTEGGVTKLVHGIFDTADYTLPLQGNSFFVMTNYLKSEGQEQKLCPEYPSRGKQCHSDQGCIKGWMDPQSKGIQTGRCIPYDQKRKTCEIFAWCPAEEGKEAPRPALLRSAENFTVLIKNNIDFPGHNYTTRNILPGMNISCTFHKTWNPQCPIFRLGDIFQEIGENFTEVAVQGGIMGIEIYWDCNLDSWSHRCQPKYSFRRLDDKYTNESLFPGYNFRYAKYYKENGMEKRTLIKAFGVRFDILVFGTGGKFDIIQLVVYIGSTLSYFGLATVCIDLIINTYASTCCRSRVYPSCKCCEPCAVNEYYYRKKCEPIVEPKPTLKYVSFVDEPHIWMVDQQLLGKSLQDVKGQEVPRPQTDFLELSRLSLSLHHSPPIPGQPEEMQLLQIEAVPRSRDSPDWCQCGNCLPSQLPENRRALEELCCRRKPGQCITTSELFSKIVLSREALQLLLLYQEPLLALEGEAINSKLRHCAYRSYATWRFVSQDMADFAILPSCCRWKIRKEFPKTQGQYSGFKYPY
The functional activity of compounds was determined by measuring changes in intracellular calcium concentration using a Ca^2+-sensitive fluorescent dye, Fluo-4 (Molecular Probes). The changes in fluorescent signal were monitored by the cell imaging technology by Hamamatsu Photonics's Functional Drug Screening System (FDSS). Increases in intracellular Ca^2+ concentration were readily detected upon activation with BzATP.
HEK293 cells stably expressing rat P2X7 (GenBank accession number NM_019256) were grown in Corning CellBIND cell culture flasks, in a 5% CO2 humidified incubator to about 80% confluence. Media composition consisted of Dulbecco's Modified Eagle Medium (high glucose), 10% fetal bovine serum ([…]), 100 units/[…] Penicillin, 100 microg/mL Streptomycin and 250 microg/mL Geneticine.
1. […] Plate-out HEK293-rat P2X7 cells (40 microL medium containing 5,000 cells per well) into poly-D-lysine coated 384-well plates (BD Falcon) at 24 h prior to assay.
2. Incubate at 37° C. in 5% CO2.
3. Incubate the plate at 37° C. in 5% CO2 for 1 h.
5. Test compounds were prepared at 100× the test concentration in DMSO by serial dilution with Biomek-FX liquid handling instrument. 33× diluted compound solutions in assay buffer were prepared in intermediate compound plate with Biomek-NX liquid handling instrument. A further 3× dilution occurred in below steps 6 and 7.
6. Add 20 microL of 33× diluted compound solutions into each well and leave the plate for 10 min under the dark at room temperature.
7. Measure activity by FDSS as follows: • Set the assay plate on the stacker of FDSS. • Start the detection of fluorescence intensity at 540 nm by 480 nm exicitation. • After 30 seconds, add 20 microL of assay buffer containing 30 microM BzATP (final 10 microM).
IC50 values for compounds of the present invention were determined from 7-point dose-response studies. Curves were generated using the average of duplicate wells for each data point. Finally, the IC50 values are calculated with the best-fit dose curve determined by XLfit (ID Business Solutions Ltd.).

Sequence of human P2X7 (Q99572 whole entry): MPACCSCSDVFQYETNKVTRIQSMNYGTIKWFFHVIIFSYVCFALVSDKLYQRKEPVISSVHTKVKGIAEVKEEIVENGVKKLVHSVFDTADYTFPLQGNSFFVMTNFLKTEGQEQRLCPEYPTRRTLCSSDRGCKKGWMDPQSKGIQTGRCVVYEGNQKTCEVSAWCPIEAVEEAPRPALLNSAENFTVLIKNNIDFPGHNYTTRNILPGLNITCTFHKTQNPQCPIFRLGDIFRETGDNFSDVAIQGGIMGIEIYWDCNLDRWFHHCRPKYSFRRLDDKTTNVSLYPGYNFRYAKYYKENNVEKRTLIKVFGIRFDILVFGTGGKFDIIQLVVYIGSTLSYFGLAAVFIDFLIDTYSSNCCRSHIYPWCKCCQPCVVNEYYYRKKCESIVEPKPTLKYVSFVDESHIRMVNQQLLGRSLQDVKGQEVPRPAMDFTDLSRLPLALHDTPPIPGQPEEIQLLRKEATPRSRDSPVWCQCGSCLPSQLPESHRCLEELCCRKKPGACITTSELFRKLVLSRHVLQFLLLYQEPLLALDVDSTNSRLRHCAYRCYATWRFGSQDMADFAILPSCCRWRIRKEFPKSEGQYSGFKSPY

In the case of `O=C(NCc1cccc(Cl)c1Cl)C1CC(O)c2ncccc21` (centres unmarked) [Example 28, N-(2,3-dichlorobenzyl)-7-hydroxy-6,7-dihydro-5H-cyclo-penta[b]pyridine-5-carboxamide], the results for the IC50 against human P2X7 and on rat P2X7 were 50 to 100 nM and less than 1000 nM, respectively.
On to `O=C(NCc1ccc(F)cc1Cl)[C@]1(F)CC[C@H](OCCO)c2ncccc21` [Example 344, (5S,8S)-N-(2-chloro-4-fluorobenzyl)-5-fluoro-8-(2-hydroxyethoxy)-5,6,7,8-tetrahydroquinoline-5-carboxamide], for which the 50% inhibitory concentration (IC50) against human P2X7 was less than 50 nM; at rat P2X7 it was less than 1000 nM.
For `N[C@]1(CO)CC[C@@](F)(C(=O)NCc2ccc(Cl)cc2Cl)c2cccnc21` (relative stereo) [Example 59, (5S*,8R*)-8-amino-N-(2,4-dichloro-benzyl)-5-fluoro-8-(hydroxymethyl)-5,6,7,8-tetrahydroquinoline-5-carboxamide], the values for the IC50 at human P2X7 and on rat P2X7 were less than 50 nM and less than 1000 nM, respectively.
In the case of `O=C(NCc1c(Cl)cc(F)cc1CO)[C@]1(F)CC[C@H](O)c2ncccc21` [Example 150, (5S,8S)-N-(2-chloro-4-fluoro-6-(hydroxymethyl)benzyl)-5-fluoro-8-hydroxy-5,6,7,8-tetrahydroquinoline-5-carboxamide], the IC50 against human P2X7 is less than 50 nM; on rat P2X7, less than 1000 nM.
In the case of `Cc1cc(Cl)cc(Cl)c1CNC(=O)[C@H]1CC[C@@H](O)c2ncccc21` [Example 85, (5S,8R)-N-(2,4-dichloro-6-methylbenzyl)-8-hy-droxy-5,6,7,8-tetrahydro-quinoline-5-carboxamide], the IC50 against human P2X7 is less than 50 nM; at rat P2X7, less than 1000 nM.
Regarding `O=C(NCc1ccc(Cl)cc1Cl)[C@]1(F)CCC(S(=O)(=O)CCO)c2ncccc21` (stereo partly drawn) [Example 351, (5S)-N-(2,4-clichlorebenzyl)-5-fluoro-8-((2-hydroxyethyl)sulfenyl)-5,6,7,8-letrahydroquineline-5-carboxamide], the half-maximal inhibitory concentration (IC50) against human P2X7 was less than 50 nM; on rat P2X7, less than 1000 nM.
In the same order, the values of `O=C(N[C@@H]1CCc2ccccc21)[C@]1(F)CC[C@H](O)c2ncccc21` [Example 196, (5S,8S)-N-((R)-2,3-dihydro-1H-inden-1-yl)-5-fluoro-8-hydroxy-5,6,7,8-tetrahydroquinoline-5-carboxamide] are less than 50 nM and less than 1000 nM.
For `O=C(NCc1ccc(Cl)cc1F)[C@]1(F)CC[C@@](O)(CO)c2ncccc21` [Example 314, (5S,8S)-N-(4-chloro-2-fluorobenzyl)-5-fluoro-8-hydroxy-8-(hydroxymethyl)-5,6,7,8-tetrahydroquinoline-5-carboxamide], the half-maximal inhibitory concentration (IC50) was 101 to 300 nM against human P2X7 and less than 1000 nM at rat P2X7.
For `Cc1cc(Cl)cc(Cl)c1CNC(=O)[C@]1(F)CC[C@@H](O)c2ncccc21` [Example 100, (5S,8R)-N-(2,4-dichloro-6-methylbenzyl)-5-fluoro-8-hydroxy-5,6,7,8-tetrahydroquinoline-5-carboxamide], the 50% inhibitory concentration (IC50) against human P2X7 was less than 50 nM; at rat P2X7 it was less than 1000 nM.
On to `O=C(NCc1ccc(F)c(F)c1Cl)[C@H]1CC[C@H](O)c2ncccc21` [Example 81, (5S,8S)-N-(2-chloro-3,4-difluorobenzyl)-8-hy-droxy-5,6,7,8-tetrahydro-auinoline-5-carboxamide], for which the results for the IC50 on human P2X7 and on rat P2X7 were less than 50 nM and less than 1000 nM, respectively.
In the case of `COC1CN(C[C@]2(O)CC[C@@](F)(C(=O)NCc3ccc(F)cc3Cl)c3cccnc32)C1` (relative stereo) [Example 53, (5S*,8R*)-N-(2-chloro-4-fluorobenzyl)-5-fluoro-8-hydroxy-8-((3-methoxy-azetidin-1-yl)methyl)-5,6,7,8-tetrahydro-quinoline-5-carboxamide], the figures for the IC50 against human P2X7 and on rat P2X7 were less than 50 nM and less than 1000 nM, respectively.
With `O=C(NCc1ccc(Cl)cc1Cl)[C@]1(F)CC[C@@](O)(CO)c2ncccc21` [Example 304, (5S,8S)-N-(2,4-dichlorobenzyl)-5-fluoro-8-hydroxy-8-(hydroxymethyl)-5,6,7,8-tetrahydroquinoline-5-carboxamide], the 50% inhibitory concentration (IC50) on human P2X7 was less than 50 nM; at rat P2X7, less than 1000 nM.
Regarding `O=C(NCc1ccc(F)cc1Cl)[C@H]1CC[C@H](O)c2ncccc21` [Example 67, (5S,8S)-N-(2-chloro-4-fluorobenzyl)-8-hydroxy-5,6,7,8-tetrahydroquinoline-5-carboxamide], the half-maximal inhibitory concentration (IC50) was 101 to 300 nM against human P2X7 and less than 1000 nM at rat P2X7.
Regarding `N#CC[C@]1(O)CC[C@@](F)(C(=O)NCc2c(Cl)cc(Cl)cc2CO)c2cccnc21` [Example 283], the figures for the IC50 against human P2X7 and on rat P2X7 were less than 50 nM and less than 1000 nM, respectively.
Take `O=C(NCc1ccc(F)c(Cl)c1F)[C@]1(F)CC[C@@](O)(CO)c2ncccc21` [Example 323, (5S,8S)-N-(3-chloro-2,4-difluorobenzyl)-5-fluoro-8-hydroxy-8-(hydroxymethyl)-5,6,7,8-tetrahydroquinoline-5-carboxamide]: the figures for the 50% inhibitory concentration (IC50) on human P2X7 and on rat P2X7 were 101 to 300 nM and less than 1000 nM, respectively.
`O=C(NCc1c(Cl)cc(Cl)cc1CO)[C@@]1(F)CC[C@@H](O)c2ncccc21` [Example 130, (5R,8R)-N-(2,4-dichloro-6-(hydroxymethyl)benzyl)-5-fluoro-8-hydroxy-5,6,7,8-tetrahydroquinoline-5-carboxamide]: the 50% inhibitory concentration (IC50) is less than 50 nM against human P2X7 and less than 1000 nM at rat P2X7.
As to `O=C(NCc1c(F)cc(Cl)cc1Cl)[C@]1(F)CC[C@](O)(CO)c2ncccc21` [Example 311, (5S,8R)-N-(2,4-dichloro-6-fluorobenzyl)-5-fluoro-8-hydroxy-8-(hydroxymethyl)-5,6,7,8-tetrahydroquinoline-5-carboxamide], the half-maximal inhibitory concentration (IC50) against human P2X7 was 50 to 100 nM; on rat P2X7 it was less than 1000 nM.
In the case of `O=C(NCc1ccc(Cl)cc1F)[C@@H]1CC[C@H](O)c2ncccc21` [Example 78, (5R,8S)-N-(4-chloro-2-fluorobenzyl)-8-hydroxy-5,6,7,8-tetrahydroquinoline-5-carboxamide], the IC50 on human P2X7 is less than 50 nM; on rat P2X7, less than 1000 nM.
As to `Cc1cc(Cl)cc(Cl)c1CNC(=O)[C@@H]1C[C@@H](O)c2ncccc21` [Example 97, (5R,7R)-N-(2,4-dichloro-6-methylbenzyl)-7-hy-droxy-6,7-dihydro-5H-cyclopenta[b]pyridin-5-carboxamide], the IC50 against human P2X7 is less than 50 nM; at rat P2X7 it was less than 1000 nM.
Take `Cc1cc(Cl)cc(Cl)c1CNC(=O)C1CCC(=O)c2ncccc21` (centres unmarked) [Example 1, N-(2,4-dichloro-6-methyl-benzyl)-8-oxo-5,6,7,8-tetrahydroquinoline-5-carboxamide]: the values for the IC50 against human P2X7 and at rat P2X7 were less than 50 nM and less than 1000 nM, respectively.
For `O=C(NCc1ccc(Cl)c(F)c1)[C@]1(F)CC[C@H](O)c2ncccc21` [Example 206, (5S,8S)-N-(4-chloro-3-fluorobenzyl)-5-fluoro-8-hydroxy-5,6,7,8-tetrahydroquinoline-5-carboxamide], the IC50 was 101 to 300 nM on human P2X7 and less than 1000 nM on rat P2X7.
For `COCC1(O)CCC(F)(C(=O)NCc2c(C)cc(Cl)cc2Cl)c2cccnc21` (centres unmarked) [Example 39, N-(2,4-dichloro-6-methylbenzyl)-5-fluoro-8-hydroxy-8-(methoxymethyl)-5,6,7,8-tetrahydro-quinoline-5-carboxamide], the IC50 against human P2X7 was less than 50 nM; on rat P2X7, less than 1000 nM.

These data come from patent US11077100B2, “Tetrahydroquinoline derivatives as P2X7 receptor antagonists” (RaQualia Pharma Inc., priority 2017, dated 2021).
